Tested on: GAD67-, VGluT1-, ChAT-positive neurons and OX42 reactive microglia in the hippocampus
Assay: Immunohistochemical analysis of GAD67, VGluT1, ChAT, OX42 in hippocampus (Experimental Example 1)
Type: in vivo, rat
Method: Immunostaining was carried out using antibodies against VGluT1 (diluted 1:500, Chemicon), ChAT (1:500, Chemicon), GFAP (1:1,000, Chemicon), tyrosine hydroxylase (TH, 1:500, Chemicon) and OX42 (CD11b/c, 1:250, Serotec) as primary antibodies instead of the anti-BrdU antibodies used in (4). The other process was the same as in (4), except that incubation was performed at 37° C. for 30 minutes in 2 N HCl.
In the immunohistochemical analysis, the number of the cells immnunostained against each antibody was counted from 5 or 6 hippocampal coronal sections. For each staining analysis, every fifth cryosections of the hippocampal region of brain tissues (AP: bregma −4.5 to −4.3 mm) were taken for immunostaining. The number of the immnunostained cells was represented as an average of number of cells in the hippocampal region of one brain slice.
The number of the VGluT1- and GAD-positive cells in the brain slice samples 1 week and 4 weeks after the administration of soyasaponin I was presented per microscopic field (×400-VGluT1, ×800-GAD67) and the number of the ChAT-positive cells was presented per each hippocampal region (10-12 confocal laser microscopic fields). 5-11 animals were used per group. Western blotted membranes were analyzed using the multi-gauge, bio-imaging program on LAS-4000 Mini (Fujifilm Life Science, Stamford, Conn., USA). Densitometeric analysis of the expression ratios of VGluT1/β-actin, GAD65/67/β-actin and ChAT/β-actin was normalized to the vehicle group.

[1] = ibotenic acid injected into entorhinal cortex, no soyasaponin I
[2] = memory-deficient model rats, soyasaponin I at 5, 10, 20 mg/kg oral

N[C@H](C(=O)O)c1cc(=O)[nH]o1 [IBO, Ibotenic acid]
ChAT-positive cells in the hippocampus relative to Sham [1]: 52.07 ± 7.38% | GAD67-positive cells in the hippocampus relative to Sham [1]: 43.02 ± 3.72% | VGluT1-positive cells in the hippocampus relative to Sham [1]: 72.44 ± 3.86% | Number of ChAT-positive cells in the hippocampus [2]: 7.30±1.32 cells | Number of GAD67-positive cells [2]: 3.81±0.63 cells per hippocampal slice

Source: US20150307841A1, “Composition for Promoting Differentiation and Proliferation of Neural Stem Cell and Neural Precursor Cell” (priority 2014, published 2015)
